# Source: ChEMBL document CHEMBL4732240, “Synthesis and antibacterial evaluation of new monobactams” (2021)
# What was measured:
# Format in all cases: functional
# Enterobacter cloacae [1] = experiment: Antibacterial activity against Enterobacter cloacae 700323 assessed as reduction in bacterial growth by CLSI based broth microdilution method
# Acinetobacter baumannii [2] = experiment: Antibacterial activity against Acinetobacter baumannii clinical isolate assessed as reduction in bacterial growth by CLSI based broth microdilution method
# Acinetobacter baumannii [3] = experiment: Antibacterial activity against Acinetobacter baumannii ATCC 19606 assessed as reduction in bacterial growth by CLSI based broth microdilution method; details: ATCC 19606 = CIP 70.34 = JCM 6841
# Escherichia coli [4] = experiment: Antibacterial activity against Escherichia coli clinical isolate assessed as reduction in bacterial growth by CLSI based broth microdilution method
# Klebsiella pneumoniae [5] = experiment: Antibacterial activity against Klebsiella pneumoniae clinical isolate assessed as reduction in bacterial growth by CLSI based broth microdilution method
# Escherichia coli [6] = experiment: Antibacterial activity against Escherichia coli ATCC 8739 assessed as reduction in bacterial growth by CLSI based broth microdilution method
# Pseudomonas aeruginosa [7] = experiment: Antibacterial activity against Pseudomonas aeruginosa clinical isolate. assessed as reduction in bacterial growth by CLSI based broth microdilution method
# Pseudomonas aeruginosa [8] = experiment: Antibacterial activity against Pseudomonas aeruginosa 9027 assessed as reduction in bacterial growth by CLSI based broth microdilution method
# Enterobacter cloacae [9] = experiment: Antibacterial activity against Enterobacter cloacae clinical isolate assessed as reduction in bacterial growth by CLSI based broth microdilution method
# Klebsiella pneumoniae [10] = experiment: Antibacterial activity against Klebsiella pneumoniae 700603 assessed as reduction in bacterial growth by CLSI based broth microdilution method
MIC (Enterobacter cloacae [1]) [µg/mL],MIC (Acinetobacter baumannii [2]) [µg/mL],MIC (Acinetobacter baumannii [3]) [µg/mL],MIC (Escherichia coli [4]) [µg/mL],MIC (Klebsiella pneumoniae [5]) [µg/mL],MIC (Escherichia coli [6]) [µg/mL],MIC (Pseudomonas aeruginosa [7]) [µg/mL],MIC (Pseudomonas aeruginosa [8]) [µg/mL],MIC (Enterobacter cloacae [9]) [µg/mL],MIC (Klebsiella pneumoniae [10]) [µg/mL],SMILES
> 64,> 64,> 64,2,8,4,16,16,32,> 64,CC1(C)[C@H](NC(=O)/C(=N/O[C@@H](COc2ccc(NC(=O)NC3CCNCC3)cc2)C(=O)O)c2csc(N)n2)C(=O)N1OS(=O)(=O)O
16,16,8,0.5,0.5,0.25,8,2,2,8,CC1(C)[C@H](NC(=O)/C(=N\O[C@@H](COc2ccc(NC(=O)N[C@@H]3CCCNC3)cc2)C(=O)O)c2csc(N)n2)C(=O)N1OS(=O)(=O)O
16,> 64,> 64,32,32,4,64,32,64,> 64,CC1(C)[C@H](NC(=O)/C(=N/O[C@@H](COc2ccc(NC(=O)N[C@H]3CCCNC3)cc2)C(=O)O)c2csc(N)n2)C(=O)N1OS(=O)(=O)O
32,64,32,8,1,0.25,2,2,4,32,CC1(C)[C@H](NC(=O)/C(=N\O[C@@H](COc2ccc(NC(=O)N[C@H]3CCCNC3)cc2)C(=O)O)c2csc(N)n2)C(=O)N1OS(=O)(=O)O

# The remaining lines, values behind:
SMILES,MIC (Enterobacter cloacae [1]) [µg/mL],MIC (Acinetobacter baumannii [2]) [µg/mL],MIC (Acinetobacter baumannii [3]) [µg/mL],MIC (Escherichia coli [4]) [µg/mL],MIC (Klebsiella pneumoniae [5]) [µg/mL],MIC (Escherichia coli [6]) [µg/mL],MIC (Pseudomonas aeruginosa [7]) [µg/mL],MIC (Pseudomonas aeruginosa [8]) [µg/mL],MIC (Enterobacter cloacae [9]) [µg/mL],MIC (Klebsiella pneumoniae [10]) [µg/mL]
CC1(C)[C@H](NC(=O)/C(=N\O[C@@H](COc2ccc(NC(=O)NC3CCNCC3)cc2)C(=O)O)c2csc(N)n2)C(=O)N1OS(=O)(=O)O,32,64,16,1,1,0.25,4,2,4,32
CC1(C)[C@H](NC(=O)/C(=N/O[C@@H](COc2ccc(NC(=O)N[C@@H]3CCCNC3)cc2)C(=O)O)c2csc(N)n2)C(=O)N1OS(=O)(=O)O,32,> 64,> 64,32,32,8,64,32,64,> 64
